Test results: article PMC8869097, “Benzothiazole Derivatives as Multifunctional Antioxidant Agents for Skin Damage: Structure–Activity Relationship of a Scaffold Bearing a Five-Membered Ring System” (Antioxidants, 2022)

Tests used:
[1] = Filtering parameters (in vitro SPF, UVAPF, UVA/UVB, critical wavelength) of W/O formulations on PMMA plates; format: physicochemical
Experimental: The synthesized derivatives were incorporated at increasing concentrations (1%, 2% and 3%) in a topical W/O cosmetic standard formulation, to evaluate the filtering parameters, having the following ingredients composition.
INCI (International Nomenclature Cosmetic Ingredients): aqua, glycerin, Euxyl PE 9010, xanthan gum, ceteareth-12, ceteareth-20, sterearic acid, butylhydroxytoluene, myritol, PEG-7 glyceryl cocoate and 10% sodium solution.
Briefly, the protocol is to finger spread 32.5 mg of each formulation onto 25 cm2 PMMA plates. Each formulation was tested in triplicate by recording five measurements for each dish, after incubation in the dark for 15–30 min at room temperature. UV transmittance data were recorded in the range 290–400 nm using a UV-VIS spectrophotometer.
Blank plate, SPF, UVA-PF and Critical Wavelength were achieved through SPF Calculator Software (version 2.1), Shimadzu, Milan, Italy) as previously reported.
For the determination of the SPF in vitro of the samples in formulation it was decided to use an internal method, developed by us previously and based on the adaptation of the ISO 24443: 2012 [38]. The transmittance spectrum, processed with a specific software (SPF Calculator), made it possible to obtain the SPF, UVAPF, critical lambda and UVA/UVB ratio values of the formulations containing the selected active ingredients (Table 1).

Microsporum canis = test: Antidermatophyte activity, plaque growth inhibition; format: cell-based, Microsporum canis CBS 131,110; settings: 100 μg/mL, SDA, read-out: % Inhibition Growth M. canis
Experimental: The dermatophytes used in this study were Epidermophyton floccosum var. floccosum (Netherlands) CBS 358.93 strain, Trichophyton tonsurans (Netherlands) CBS 483.76 strain, Trichophyton mentagrophytes (Netherlands) CBS 160.66 strain, Microsporum canis (Iran) CBS 131,110 strain, and Microsporum gypseum (Iran) CBS 130,948 strain. All dermatophytes were maintained at 4 °C as agar slants on SDA. Candida albicans (ATCC 10231) was maintained at 4 °C on SDA plate.
The in vitro antifungal activity against the five selected dermatophytes was evaluated, as previously described, using the plaque growth inhibition method. All compounds were evaluated at the final concentration of 100 µg/mL. The percentages of growth inhibition according to Equation (5) were calculated as the average of three different experiments. I = [(C − T)/C] × 100%,(5) where I is the percentage value of growth inhibition, C is the measure of the diameter of the control circular mycelial inoculum (mm) and T is the extended diameter of the treated mycelial inoculum (mm).
All synthesized benzothiazole derivatives were evaluated to evaluate their in vitro antifungal activity against the five pathogenic dermatophytes that cause the most common dermatomycoses: Microsporum gypseum, Microsporum canis, Trichophyton mentagrophytes, Trichophyton tonsurans and Epidermophyton floccosum. All compounds were tested at a concentration of 100 µg/mL in DMSO, to evaluate the ability to inhibit the growth of dermatophyte cultures in Sabouraud Dextrose Agar (SDA). Briefly, room temperature incubation was performed and dermatophyte inhibition assessed by measuring the colony diameter at each disc for 7 days. The results are shown in Table 3 and were determined as the average of three different experiments.

[2] = UV spectra of compounds in solution (filtering parameters); format: physicochemical
Experimental: The evaluation of the sun protection parameters has been carried out using a UV-Vis spectrophotometer. The absorbance of the solutions of the test compounds dissolved in the different solvents (DMSO, MeOH, DMSO–H2O 4:6, DMSO–H2O 6:4, HE) at a concentration of 0.0015 (±0.000005)% was recorded in the range 290–400 nm using a 1 cm quartz cell at 1 nm intervals. It was decided to evaluate the profile of the compounds in the Peg-7 Glyceryl Cocoate (HE) oil, which is the emollient of choice to solubilize the compounds in a formulation suitable for in vivo analysis. Wavelength absorbance is in relationship with transmittance (T (λ)) from Equation (2) A (λ) = […](2) where T (λ) is the fraction of incident irradiance that is transmitted through a sample.
The three parameters were determined, respectively, in DMSO and in methanol in order to perform a comparison (Table S1).
Since DMSO is a solvent with characteristics very close to those of an oil, the analysis was also carried out in solutions that mimic the possible conditions of a formulation. For this reason, the 4:6 and 6:4 proportions of DMSO–H2O were chosen to evaluate the choice of an oil-in-water or water-in-oil emulsion.

Row | Structure (SMILES) | SPF ([1]; 1% in W/O formulation) | UVA/UVB ([1]; 1% in W/O formulation) | UVAPF ([1]; 1% in W/O formulation) | λc ([1]; 1% in W/O formulation) | SPF ([1]; 2% in W/O formulation) | UVA/UVB ([1]; 2% in W/O formulation) | UVAPF ([1]; 2% in W/O formulation) | λc ([1]; 2% in W/O formulation) | SPF ([1]; 3% in W/O formulation) | UVA/UVB ([1]; 3% in W/O formulation) | UVAPF ([1]; 3% in W/O formulation) | λc ([1]; 3% in W/O formulation) | inhibition at 100 µg/mL (Microsporum canis) | A (absorbance) ([2]; DMSO) | ε (molar extinction coefficient) ([2]; DMSO) | λmax ([2]; DMSO) | A (absorbance) ([2]; DMSO-H2O 4:6) | A (absorbance) ([2]; MeOH) | ε (molar extinction coefficient) ([2]; MeOH) | λmax ([2]; MeOH) | further results
1 | c1coc(-c2nc3ccccc3s2)c1 [Compound 9a, 2-(Furan-2-Yl)benzothiazole] | 6.42 | 0.34 | 1.26 | 337 nm | 14.18 | 0.18 | 1.60 | 341 nm | 20.23 | 0.13 | 1.50 | 343 nm | 64 ± 0.72% | 1.620 | 21715.82 | 322.10 nm | 2.43 | 2.750 | 32505.91 | 316.40 nm | ε (molar extinction coefficient) ([2]; DMSO-H2O 4:6): 34863.702; λmax ([2]; DMSO-H2O 4:6): 322.77 nm; A (absorbance) ([2]; DMSO-H2O 6:4): 1.95; λmax ([2]; DMSO-H2O 6:4): 323.00 nm; A (absorbance) ([2]; HE (Peg-7 Glyceryl Cocoate)): 1.18; ε (molar extinction coefficient) ([2]; HE (Peg-7 Glyceryl Cocoate)): 15817.594; λmax ([2]; HE (Peg-7 Glyceryl Cocoate)): 320.70 nm
2 | c1c[nH]c(-c2nc3ccccc3[nH]2)c1 [Lead 10, reference compound] | 2.44 | 0.70 | 1.16 | 341 nm | 2.72 | 0.73 | 1.32 | 357 nm | 3.06 | 0.75 | 1.54 | 364 nm | 96.8 ± 3.56% |  |  |  |  |  |  |  | 
3 | c1c[nH]c(-c2nc3ccccc3s2)c1 [Compound 8a, 2-(1H-Pyrrol-2-Yl)benzothiazole] | 4.19 | 1.17 | 2.17 | 354 nm | 7.16 | 0.92 | 2.46 | 353 nm | 13.05 | 0.66 | 2.88 | 354 nm | 25 ± 1.61% | 2.360 | 29500.00 | 333.40 nm | 2.35 | 1.540 | 23692.31 | 329.40 nm | UVA protection profile ([1]; UVA-PF at least 1/3 of SPF to be efficient): good UVA protection profile; ε (molar extinction coefficient) ([2]; DMSO-H2O 4:6): 31333.333; λmax ([2]; DMSO-H2O 4:6): 333.70 nm; A (absorbance) ([2]; DMSO-H2O 6:4): 1.51; ε (molar extinction coefficient) ([2]; DMSO-H2O 6:4): 23239.769; λmax ([2]; DMSO-H2O 6:4): 334.20 nm; A (absorbance) ([2]; HE (Peg-7 Glyceryl Cocoate)): 0.79; ε (molar extinction coefficient) ([2]; HE (Peg-7 Glyceryl Cocoate)): 12153.846; λmax ([2]; HE (Peg-7 Glyceryl Cocoate)): 332.80 nm
4 | NS(=O)(=O)c1ccc2nc(-c3cccs3)sc2c1 [Compound 10c, 2-(Thiophen-2-Yl)benzothiazole-6-Sulfonamide] |  |  |  |  |  |  |  |  |  |  |  |  | 14.3 ± 0.7% | 0.890 | 20273.35 | 336.50 nm |  | 0.430 | 9704.99 | 333.17 nm | 
5 | c1csc(-c2nc3ccccc3s2)c1 [Compound 10a, 2-(Thiophen-2-Yl)benzothiazole] | 4.86 | 0.69 | 1.60 | 347 nm | 5.14 | 0.62 | 1.60 | 347 nm | 10.73 | 0.45 | 2.02 | 349 nm | 66 ± 0.82% | 0.880 | 12735.17 | 321.80 nm | 0.75 | 0.760 | 9706.26 | 319.50 nm | ε (molar extinction coefficient) ([2]; DMSO-H2O 4:6): 12520.868; λmax ([2]; DMSO-H2O 4:6): 322.67 nm; A (absorbance) ([2]; DMSO-H2O 6:4): 1.29; ε (molar extinction coefficient) ([2]; DMSO-H2O 6:4): 21535.893; λmax ([2]; DMSO-H2O 6:4): 323.00 nm; A (absorbance) ([2]; HE (Peg-7 Glyceryl Cocoate)): 1.32; ε (molar extinction coefficient) ([2]; HE (Peg-7 Glyceryl Cocoate)): 14316.703; λmax ([2]; HE (Peg-7 Glyceryl Cocoate)): 320.30 nm
